The series is described as follows: Solubility of compound (I) in water at predetermined pH. To be noted: water for injection, ice-cold, pH adjusted with HCl/NaOH; solubility increased with decrease in pH. Format: physicochemical. On the procedure: Method for Measuring Solubility of Compound (I):
Compound (I) (in an amount so that concentration of compound (I) in the aqueous solution becomes 300 mg/g) is weighed in a beaker. 15 mL of water for injection cooled to 5° C. is added, and the solution is stirred using a stirrer under ice-cold conditions for 30 minutes. While stirring, adjustment to the predetermined pH is conducted by dropwise addition of 1N hydrochloric acid or 1N sodium hydroxide aqueous solution, and the pH is maintained. After stirring is completed, a filtration filter (for example, Ekicrodisc 0.45 μm HT-Tuffryn, Gelman Science Japan, Ltd.) is used for filtration, and the amount of compound (I) in the filtrate is measured by the quantitative HPLC method which is similar to Test Example 1 described later, and thus solubility of compound (I) is obtained.

This is an account of results in patent US20100010214A1, “LYOPHILIZED PREPARATION OF 1-METHYLCARBAPENEM” (DAIICHI SANKYO COMPANY, LIMITED, priority 2006, published 2010).

As to `C[C@@H](O)[C@H]1C(=O)N2C(C(=O)O)=C(S[C@H]3C[C@@H](C(=O)N4CC[C@H](NC(=O)CNC(=N)N)C4)N(C)C3)[C@H](C)[C@H]12` [Compound (I), (1R,5S,6S)-6-[(1R)-1-hydroxyethyl]-1-methyl-2-[(2S,4S)-2-[(3S)-3-(2-guanidinoacetylamino)pyrrolidin-1-ylcarbonyl]-1-methylpyrrolidin-4-ylthio]-1-carbapen-2-em-3-carboxylic acid], the Solubility in water entry was “solubility sufficient for the production of the preparation at pH 7 or lower”.
